Results from ChEMBL document CHEMBL4321866, “Discovery of Highly Potent and Efficient PROTAC Degraders of Androgen Receptor (AR) by Employing Weak Binding Affinity VHL E3 Ligase Ligands” (J Med Chem, 2019).
The source made the active and inactive calls. No cut-off for these calls is given here.

What was measured:
[1] = biological target: T1, von Hippel-Lindau disease tumor suppressor/Androgen receptor (Homo sapiens, UniProt P10275+P40337); test: Protac activity against VHL/AR in AR-positive human LNCAP cells assessed as reduction in PSA mRNA expression level incubated for 24 hrs by qRT-PCR analysis; assay type: cell-based
Target sequence in this assay (P10275 whole entry, looked up): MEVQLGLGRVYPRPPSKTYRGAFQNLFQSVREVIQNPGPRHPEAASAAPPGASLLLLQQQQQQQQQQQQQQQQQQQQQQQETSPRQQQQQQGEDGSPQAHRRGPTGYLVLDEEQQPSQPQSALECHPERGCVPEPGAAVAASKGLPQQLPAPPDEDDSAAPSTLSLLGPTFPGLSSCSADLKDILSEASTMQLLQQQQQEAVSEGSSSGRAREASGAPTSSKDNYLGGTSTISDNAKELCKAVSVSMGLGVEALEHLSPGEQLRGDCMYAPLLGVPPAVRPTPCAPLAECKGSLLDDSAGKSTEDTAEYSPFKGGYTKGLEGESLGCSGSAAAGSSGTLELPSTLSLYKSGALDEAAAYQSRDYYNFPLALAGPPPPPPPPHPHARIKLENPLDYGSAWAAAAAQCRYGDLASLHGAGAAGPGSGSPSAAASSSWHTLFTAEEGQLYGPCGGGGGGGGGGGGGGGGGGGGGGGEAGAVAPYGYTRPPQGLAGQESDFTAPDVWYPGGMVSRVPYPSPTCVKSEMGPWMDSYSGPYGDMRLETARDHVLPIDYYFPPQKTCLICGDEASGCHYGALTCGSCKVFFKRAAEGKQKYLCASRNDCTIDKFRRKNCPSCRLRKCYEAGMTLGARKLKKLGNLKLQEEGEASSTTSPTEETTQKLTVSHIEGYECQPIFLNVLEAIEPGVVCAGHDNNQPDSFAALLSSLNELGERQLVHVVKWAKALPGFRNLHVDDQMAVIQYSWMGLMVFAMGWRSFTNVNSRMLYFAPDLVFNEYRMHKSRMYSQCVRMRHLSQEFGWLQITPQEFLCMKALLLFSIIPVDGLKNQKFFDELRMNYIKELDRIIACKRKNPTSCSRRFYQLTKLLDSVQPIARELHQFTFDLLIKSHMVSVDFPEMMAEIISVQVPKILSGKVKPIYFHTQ
Target sequence in this assay (P40337 whole entry, looked up): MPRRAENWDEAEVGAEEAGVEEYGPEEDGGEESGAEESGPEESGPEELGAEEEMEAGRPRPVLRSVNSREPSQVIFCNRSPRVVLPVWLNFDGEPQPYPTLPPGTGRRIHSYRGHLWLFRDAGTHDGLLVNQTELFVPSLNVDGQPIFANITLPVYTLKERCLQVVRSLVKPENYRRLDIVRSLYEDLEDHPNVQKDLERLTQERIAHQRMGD

[2] = biological target: T1, von Hippel-Lindau disease tumor suppressor/Androgen receptor; test: Protac activity against VHL/AR in AR-positive human LNCAP cells assessed as induction of AR degradation at 0.01 uM incubated for 6 hrs by Western blot analysis relative to control; assay type: cell-based
Target sequence in this assay (P10275 whole entry, looked up): as the sequence (P10275 whole entry, looked up) above
Target sequence in this assay (P40337 whole entry, looked up): as the sequence (P40337 whole entry, looked up) above

[3] = biological target: T1, von Hippel-Lindau disease tumor suppressor/Androgen receptor; test: Protac activity against VHL/AR in AR-positive human LNCAP cells assessed as induction of AR degradation at 0.1 uM incubated for 6 hrs by Western blot analysis relative to control; assay type: cell-based
Target sequence in this assay (P10275 whole entry, looked up): as the sequence (P10275 whole entry, looked up) above
Target sequence in this assay (P40337 whole entry, looked up): as the sequence (P40337 whole entry, looked up) above

[4] = biological target: T1, von Hippel-Lindau disease tumor suppressor/Androgen receptor; test: Protac activity against VHL/AR in AR-positive human LNCAP cells assessed as induction of AR degradation at 1 uM incubated for 6 hrs by Western blot analysis relative to control; assay type: cell-based
Target sequence in this assay (P10275 whole entry, looked up): as the sequence (P10275 whole entry, looked up) above
Target sequence in this assay (P40337 whole entry, looked up): as the sequence (P40337 whole entry, looked up) above

[5] = biological target: T1, von Hippel-Lindau disease tumor suppressor/Androgen receptor; test: Protac activity against VHL/AR in AR-positive human LNCAP cells assessed as induction of AR degradation by measuring reduction in AR protein level at 100 nM incubated for 3 hrs by Western blot analysis; assay type: cell-based
Target sequence in this assay (P10275 whole entry, looked up): as the sequence (P10275 whole entry, looked up) above
Target sequence in this assay (P40337 whole entry, looked up): as the sequence (P40337 whole entry, looked up) above

[6] = biological target: T1, von Hippel-Lindau disease tumor suppressor/Androgen receptor; test: Protac activity against VHL/AR in AR-positive human VCaP cells assessed as induction of AR degradation by measuring reduction in AR protein level at 100 nM incubated for 3 hrs by Western blot analysis relative to control; assay type: cell-based; set-up: scale not given: the % may be the effect or the level left
Target sequence in this assay (P10275 whole entry, looked up): as the sequence (P10275 whole entry, looked up) above
Target sequence in this assay (P40337 whole entry, looked up): as the sequence (P40337 whole entry, looked up) above

[7] = biological target: T1, von Hippel-Lindau disease tumor suppressor/Androgen receptor; test: Protac activity against VHL/AR in AR-positive human LNCAP cells assessed as induction of AR degradation incubated for 6 hrs by Western blot analysis; assay type: cell-based
[8] = biological target: T1, von Hippel-Lindau disease tumor suppressor/Androgen receptor; test: Protac activity against VHL/AR in AR-positive human VCaP cells assessed as induction of AR degradation incubated for 6 hrs by Western blot analysis; assay type: cell-based
[9] = biological target: T1, von Hippel-Lindau disease tumor suppressor/Androgen receptor; test: Protac activity against VHL/AR in AR-positive human 22Rv1 cells assessed as induction of AR degradation incubated for 6 hrs by Western blot analysis
[10] = biological target: T1, von Hippel-Lindau disease tumor suppressor/Androgen receptor; test: Protac activity against VHL/AR in AR-positive human LNCAP cells assessed as induction of AR degradation by measuring reduction in AR protein level at 30 nM incubated for 6 hrs by Western blot analysis relative to control; assay type: cell-based; set-up: scale not given: the % may be the effect or the level left
[11] = biological target: T1, von Hippel-Lindau disease tumor suppressor/Androgen receptor; test: Protac activity against VHL/AR in AR-positive human VCaP cells assessed as induction of AR degradation by measuring reduction in AR protein level at 30 nM incubated for 6 hrs by Western blot analysis relative to control; assay type: cell-based; set-up: scale not given: the % may be the effect or the level left
[12] = biological target: T1, von Hippel-Lindau disease tumor suppressor/Androgen receptor; test: Protac activity against VHL/AR in AR-positive human 22Rv1 cells assessed as induction of AR degradation by measuring reduction in AR protein level at 10 nM incubated for 6 hrs by Western blot analysis relative to control; set-up: scale not given: the % may be the effect or the level left
[13] = biological target: T1, von Hippel-Lindau disease tumor suppressor/Androgen receptor; test: Protac activity against VHL/AR in AR-positive human LNCAP cells assessed as AR degradation at 100 nM preincubated with VHL ligand VHLa for 2 hrs followed by incubation with compound for 6 hrs by Western blot analysis; assay type: cell-based
[14] = biological target: T1, von Hippel-Lindau disease tumor suppressor/Androgen receptor; test: Protac activity against VHL/AR in AR-positive human LNCAP cells assessed as AR degradation at 100 nM preincubated with NEDD8-activating E1 enzyme inhibitor, MLN4924 for 2 hrs followed by incubation with compound for 6 hrs by Western blot analysis; assay type: cell-based
[15] = biological target: T1, von Hippel-Lindau disease tumor suppressor/Androgen receptor; test: Protac activity against VHL/AR in AR-positive human LNCAP cells assessed as AR degradation at 100 nM preincubated with proteasome inhibitor, MG132 for 2 hrs followed by incubation with compound for 6 hrs by Western blot analysis; assay type: cell-based
[16] = biological target: T1, von Hippel-Lindau disease tumor suppressor/Androgen receptor; test: Protac activity against VHL/AR in AR-positive human LNCAP cells assessed as reduction in TMPRSS2 mRNA expression level incubated for 24 hrs by qRT-PCR analysis; assay type: cell-based
[17] = biological target: T1, von Hippel-Lindau disease tumor suppressor/Androgen receptor; test: Protac activity against VHL/AR in AR-positive human LNCAP cells assessed as reduction in FKBP5 mRNA expression level incubated for 24 hrs by qRT-PCR analysis; assay type: cell-based
[18] = biological target: T1, von Hippel-Lindau disease tumor suppressor/Androgen receptor; test: Protac activity against VHL/AR in AR-positive human LNCAP cells assessed as reduction in PSA mRNA expression level at 10 nM incubated for 24 hrs by qRT-PCR analysis relative to control; assay type: cell-based; set-up: scale not given: the % may be the effect or the level left
[19] = biological target: T1, von Hippel-Lindau disease tumor suppressor/Androgen receptor; test: Protac activity against VHL/AR in AR-positive human LNCAP cells assessed as reduction in TMPRSS2 mRNA expression level at 10 nM incubated for 24 hrs by qRT-PCR analysis relative to control; assay type: cell-based; set-up: scale not given: the % may be the effect or the level left
[20] = biological target: T1, von Hippel-Lindau disease tumor suppressor/Androgen receptor; test: Protac activity against VHL/AR in AR-positive human LNCAP cells assessed as reduction in FKBP5 mRNA expression level at 10 nM incubated for 24 hrs by qRT-PCR analysis relative to control; assay type: cell-based; set-up: scale not given: the % may be the effect or the level left
LNCaP = test: Antiproliferative activity against AR-positive human LNCAP cells incubated for 7 days in presence of AR agonist, R1881 by WST-8 assay; assay type: functional, cell-based; conditions: 168 h
VCaP [21] = test: Antiproliferative activity against AR- positive human VCaP cells incubated for 7 days in presence of AR agonist, R1881 by WST-8 assay; assay type: functional, cell-based; conditions: 168 h
[22] = biological target: T1, von Hippel-Lindau disease tumor suppressor/Androgen receptor; test: Protac activity against VHL/AR in AR-positive human LNCAP cells assessed as AR degradation at 100 nM preincubated with AR antagonist N-((1r,3r)-3-(3-Chloro-4-cyanophenoxy)-2,2,4,4-tetramethylcyclobutyl)-1-(2-hydroxyethyl)-1H-pyrazole-4-carboxamide for 2 hrs followed by incubation with compound addition for 6 hrs by Western blot analysis; assay type: cell-based
VCaP [23] = test: Potency index, ratio of IC50 for AR antagonist N-((1r,3r)-3-(3-Chloro-4-cyanophenoxy)-2,2,4,4-tetramethylcyclobutyl)-1-(2-hydroxyethyl)-1H-pyrazole-4-carboxamide to IC50 for test compound against AR-positive human VCaP cells incubated for 7 days in presence of AR agonist R1881 by WST-8 assay; assay type: functional
[24] = biological target: T1, von Hippel-Lindau disease tumor suppressor/Androgen receptor; test: Protac activity against VHL/AR in AR-positive human LNCAP cells assessed as reduction in PSA mRNA expression level incubated for 24 hrs by qRT-PCR analysis relative to N-((1r,3r)-3-(3-Chloro-4-cyanophenoxy)-2,2,4,4-tetramethylcyclobutyl)-1-(2-hydroxyethyl)-1H-pyrazole-4-carboxamide; assay type: cell-based
[25] = biological target: T1, von Hippel-Lindau disease tumor suppressor/Androgen receptor; test: Protac activity against VHL/AR in AR-positive human LNCAP cells assessed as reduction in TMPRSS2 mRNA expression level incubated for 24 hrs by qRT-PCR analysis relative to N-((1r,3r)-3-(3-Chloro-4-cyanophenoxy)-2,2,4,4-tetramethylcyclobutyl)-1-(2-hydroxyethyl)-1H-pyrazole-4-carboxamide; assay type: cell-based
[26] = biological target: T1, von Hippel-Lindau disease tumor suppressor/Androgen receptor; test: Protac activity against VHL/AR in AR-positive human LNCAP cells assessed as reduction in FKBP5 mRNA expression level incubated for 24 hrs by qRT-PCR analysis relative to N-((1r,3r)-3-(3-Chloro-4-cyanophenoxy)-2,2,4,4-tetramethylcyclobutyl)-1-(2-hydroxyethyl)-1H-pyrazole-4-carboxamide; assay type: cell-based
[27] = biological target: T1, von Hippel-Lindau disease tumor suppressor/Androgen receptor; test: Protac activity against VHL/AR in AR-positive human VCaP cells assessed as reduction in TMPRSS2 mRNA expression level incubated for 24 hrs by qRT-PCR analysis relative to N-((1r,3r)-3-(3-Chloro-4-cyanophenoxy)-2,2,4,4-tetramethylcyclobutyl)-1-(2-hydroxyethyl)-1H-pyrazole-4-carboxamide; assay type: cell-based
[28] = biological target: T1, von Hippel-Lindau disease tumor suppressor/Androgen receptor; test: Protac activity against VHL/AR in AR-positive human VCaP cells assessed as reduction in FKBP5 mRNA expression level incubated for 24 hrs by qRT-PCR analysis relative to N-((1r,3r)-3-(3-Chloro-4-cyanophenoxy)-2,2,4,4-tetramethylcyclobutyl)-1-(2-hydroxyethyl)-1H-pyrazole-4-carboxamide; assay type: cell-based
[29] = biological target: T1, von Hippel-Lindau disease tumor suppressor/Androgen receptor; test: Protac activity against VHL/AR in AR-positive human VCaP cells assessed as reduction in ERG mRNA expression level incubated for 24 hrs by qRT-PCR analysis relative to N-((1r,3r)-3-(3-Chloro-4-cyanophenoxy)-2,2,4,4-tetramethylcyclobutyl)-1-(2-hydroxyethyl)-1H-pyrazole-4-carboxamide; assay type: cell-based

Activity [1]: Dose-dependent effect
Activity [2]: 90%
Activity [3]: > 95%
Activity [4]: > 99%
Activity [5]: Active
Activity [6]: > 90%
Activity [7]: Dose-dependent effect
DC50 [7]: 0.535 nM
Activity [8]: Dose-dependent effect
DC50 [8]: 0.969 nM
Activity [9]: Dose-dependent effect
DC50 [9]: 0.153 nM
Activity [10]: > 95%
Activity [11]: > 95%
Activity [12]: > 95%
Activity [13]: inactive
Activity [14]: inactive
Activity [15]: inactive
Activity [16]: Dose-dependent effect
Activity [17]: Dose-dependent effect
Activity [18]: > 50%
Activity [19]: > 50%
Activity [20]: > 50%
IC50 (LNCaP): 2 nM
IC50 (VCaP [21]): 6 nM
Activity [22]: inactive
fold change (FC) [24]: > 10
fold change (FC) [25]: > 10
fold change (FC) [26]: > 10
fold change (FC) [27]: > 10
fold change (FC) [28]: > 10
fold change (FC) [29]: > 10
Structure (SMILES): Cc1cc([C@H](C(=O)N2C[C@H](O)C[C@H]2C(=O)N[C@@H](CC(=O)N2CCC(C#Cc3ccc(C(=O)N[C@H]4C(C)(C)[C@H](Oc5ccc(C#N)c(Cl)c5)C4(C)C)cc3)CC2)c2ccccc2)C(C)C)on1
Ratio IC50 (VCaP [23]): 30
